Experimental data taken from ChEMBL document CHEMBL1201862, “PubChem BioAssay data set” (2004).
Several values for one entry are separate records, joined by “and”; a condition that tells them apart may be missing. Equal entries are not always repeated.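 Values below derive from 48-hour exposures of cells grown in 96-well plates, with endpoints linearly interpolated between the two concentrations bracketing the appropriate inhibition level. Here, GI50 denotes the concentration required for 50% inhibition of growth.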 Activity calls are given as the source filed them. Cut-off read from the data, not from the text of the source: active = GI50 up to about 1.1 µM and inactive = higher.

How the values were obtained:
Test in all cases: inhibition of tumour cell growth, NCI panel, 48 h
[1] = test system: M14
[2] = test system: PC-3
[3] = test system: SK-OV-3
[4] = test system: NCI-H226
[5] = test system: HL-60
[6] = test system: SR
[7] = test system: UACC-62
[8] = test system: OVCAR-4
[9] = test system: SK-MEL-28
[10] = test system: ACHN
[11] = test system: IGROV-1
[12] = test system: OVCAR-5
[13] = test system: MDA-MB-435
[14] = test system: T47D
[15] = test system: SF-539
[16] = test system: SK-MEL-2
[17] = test system: COLO 205
[18] = test system: A498
[19] = test system: SN12C
[20] = test system: LOX IMVI

SMILES	GI50 [1]	GI50 [2]	GI50 [3]	GI50 [4]	GI50 [5]	GI50 [6]	GI50 [7]	GI50 [8]	GI50 [9]	GI50 [10]	GI50 [11]	GI50 [12]	GI50 [13]	GI50 [14]	GI50 [15]	GI50 [16]	GI50 [17]	GI50 [18]	GI50 [19]	GI50 [20]
COC(=O)C1=C(C)NC2=C(C(=O)c3ccccc32)C1c1c[nH]nc1-c1ccccc1 (stereo not given)	> 100 µM (inactive)	52.1 µM (inactive)	> 100 µM (inactive)	41.2 µM (inactive)	39.8 µM (inactive)	24.4 µM (inactive)	35.6 µM (inactive)	54.7 µM (inactive)	49.4 µM (inactive)	35.2 µM (inactive)	20.2 µM (inactive)	> 100 µM (inactive)	57.4 µM (inactive)	90.6 µM (inactive)	29.9 µM (inactive)	33.7 µM (inactive)	20.9 µM (inactive)	48.5 µM (inactive)	72.9 µM (inactive)	–
Cn1c2c(c3c(=O)[nH]ncc31)CCc1ccccc1-2	18.6 µM (inactive)	28.2 µM (inactive)	61.1 µM (inactive)	29.4 µM (inactive)	27 µM (inactive)	20.5 µM (inactive)	–	44.7 µM (inactive)	26.7 µM (inactive)	25.4 µM (inactive)	19 µM (inactive)	45.6 µM (inactive)	32.1 µM (inactive)	28.6 µM (inactive)	46.5 µM (inactive)	24.6 µM (inactive)	30 µM (inactive)	16.3 µM (inactive)	34.8 µM (inactive)	17.6 µM (inactive)
Cc1ccc(/C=C2/N/C(=N\N=C/C(O)C(O)C(O)CO)NC2=O)cc1 (stereo not given)	> 100 µM (inactive)	> 100 µM (inactive)	> 100 µM (inactive)	63.5 µM (inactive) and 66.2 µM (inactive)	56.5 µM (inactive) and 56.4 µM (inactive)	> 100 µM (inactive)	–	33.1 µM (inactive) and 35.8 µM (inactive)	> 100 µM (inactive)	> 100 µM (inactive)	> 100 µM (inactive)	> 100 µM (inactive)	> 100 µM (inactive)	79.4 µM (inactive)	> 100 µM (inactive)	> 100 µM (inactive)	> 100 µM (inactive)	> 100 µM (inactive)	> 100 µM (inactive)	> 100 µM (inactive)
CC(C)(C)/C(O)=C\c1nc2cc(F)c(F)cc2[nH]c1=O	> 100 µM (inactive)	> 100 µM (inactive)	> 100 µM (inactive)	> 100 µM (inactive)	> 100 µM (inactive)	> 100 µM (inactive)	> 100 µM (inactive)	> 100 µM (inactive)	> 100 µM (inactive)	> 100 µM (inactive)	> 100 µM (inactive)	–	> 100 µM (inactive)	> 100 µM (inactive)	> 100 µM (inactive)	> 100 µM (inactive)	> 100 µM (inactive)	> 100 µM (inactive)	–	> 100 µM (inactive)
CC[C@@]1(O)C(=O)OCc2c1cc1n(c2=O)Cc2c-1nc1ccccc1c2/C=N\NC(=O)CN	0.126 µM (active)	4.73 µM (inactive)	–	0.188 µM (active)	0.145 µM (active)	< 0.0125 µM (active)	0.0333 µM (active)	9.46 µM (inactive)	23 µM (inactive)	< 0.0197 µM (active)	2.59 µM (inactive)	3.24 µM (inactive)	1.61 µM (inactive)	0.0486 µM (active)	0.0258 µM (active)	23.8 µM (inactive)	15.6 µM (inactive)	0.488 µM (active)	0.0458 µM (active)	0.0989 µM (active)
O=C1CN(C(=O)C2CCCN2C(=O)C2CCCN2)C(=O)CN1 (stereo not given)	> 100 µM (inactive)	> 100 µM (inactive)	> 100 µM (inactive)	> 100 µM (inactive)	> 100 µM (inactive)	> 100 µM (inactive)	> 100 µM (inactive)	> 100 µM (inactive)	> 100 µM (inactive)	> 100 µM (inactive)	> 100 µM (inactive)	> 100 µM (inactive)	36.8 µM (inactive)	> 100 µM (inactive)	–	–	> 100 µM (inactive)	55.2 µM (inactive)	> 100 µM (inactive)	> 100 µM (inactive)
COc1cc2c(cc1OC)C1C=NC(C2)c2cc(OC)c(OC)cc21 (stereo not given)	> 100 µM (inactive)	> 100 µM (inactive)	> 100 µM (inactive)	6.97 µM (inactive)	50.7 µM (inactive)	69.3 µM (inactive)	> 100 µM (inactive)	> 100 µM (inactive)	> 100 µM (inactive)	> 100 µM (inactive)	96.4 µM (inactive)	> 100 µM (inactive)	> 100 µM (inactive)	90.8 µM (inactive)	> 100 µM (inactive)	> 100 µM (inactive)	89.7 µM (inactive)	> 100 µM (inactive)	> 100 µM (inactive)	> 100 µM (inactive)
O=c1c2ncn(C3CC(O)C(CO)O3)c2nnn1Cc1ccccc1[N+](=O)[O-] (stereo not given)	> 100 µM (inactive)	> 100 µM (inactive)	> 100 µM (inactive)	43.6 µM (inactive)	57.3 µM (inactive)	3.13 µM (inactive)	> 100 µM (inactive)	> 100 µM (inactive)	> 100 µM (inactive)	> 100 µM (inactive)	> 100 µM (inactive)	> 100 µM (inactive)	> 100 µM (inactive)	> 100 µM (inactive)	> 100 µM (inactive)	4.78 µM (inactive)	> 100 µM (inactive)	> 100 µM (inactive)	> 100 µM (inactive)	> 100 µM (inactive)
COc1ccc2[nH]cc(CN3CCC(CO)(c4ccccc4)CC3)c2c1	17.3 µM (inactive)	31.1 µM (inactive)	0.53 µM (active)	43.5 µM (inactive)	18.7 µM (inactive)	22.1 µM (inactive)	25.9 µM (inactive)	42.2 µM (inactive)	17.9 µM (inactive)	20.2 µM (inactive)	38.5 µM (inactive)	68.5 µM (inactive)	20.6 µM (inactive)	20.9 µM (inactive)	–	23.2 µM (inactive)	18.3 µM (inactive)	45.8 µM (inactive)	72.8 µM (inactive)	16.8 µM (inactive)
CC(C)CCCC(C)[C@H]1CC[C@H]2N/C(=N/c3ccccc3)CCC[C@]12C (stereo not given in full)	1.87 µM (inactive)	2.97 µM (inactive)	2.03 µM (inactive)	1.86 µM (inactive)	1.85 µM (inactive)	1.77 µM (inactive)	1.85 µM (inactive)	3.56 µM (inactive)	2.09 µM (inactive)	–	1.61 µM (inactive)	–	1.88 µM (inactive)	3.09 µM (inactive)	1.61 µM (inactive)	1.67 µM (inactive)	1.3 µM (inactive)	3.35 µM (inactive)	1.77 µM (inactive)	0.863 µM (active)
O=c1cc(-c2ccccc2)[nH]c2ccc(N3CCCC3)cc12	< 0.0123 µM (active)	0.0282 µM (active)	0.0466 µM (active)	0.0266 µM (active)	< 0.01 µM (active)	0.0184 µM (active)	< 0.01 µM (active)	–	0.0533 µM (active)	0.0222 µM (active)	0.267 µM (active)	31.6 µM (inactive)	< 0.01 µM (active)	> 100 µM (inactive)	0.0123 µM (active)	0.0484 µM (active)	0.0196 µM (active)	0.0272 µM (active)	0.0451 µM (active)	< 0.0137 µM (active)
Nc1ccc(C(=O)c2cn(CCN3CCOCC3)c3ccccc23)c2ccccc12	44.6 µM (inactive)	36.1 µM (inactive)	> 100 µM (inactive)	–	15.4 µM (inactive)	22.9 µM (inactive)	34 µM (inactive)	33 µM (inactive)	38.4 µM (inactive)	48.9 µM (inactive)	16.1 µM (inactive)	39.3 µM (inactive)	27.7 µM (inactive)	24.4 µM (inactive)	70.8 µM (inactive)	36.6 µM (inactive)	24.8 µM (inactive)	65.6 µM (inactive)	–	23.4 µM (inactive)
Cc1nn(-c2ccccn2)c2c1C(SC#N)=C(C=O)CC2	15.8 µM (inactive)	19.7 µM (inactive)	19.3 µM (inactive)	–	3.55 µM (inactive)	10.1 µM (inactive)	5.71 µM (inactive)	–	21.2 µM (inactive)	16.3 µM (inactive)	11.5 µM (inactive)	4.85 µM (inactive)	18.1 µM (inactive)	4.05 µM (inactive)	19.1 µM (inactive)	16.9 µM (inactive)	10.5 µM (inactive)	2.29 µM (inactive)	18.5 µM (inactive)	15.7 µM (inactive)
Cc1ccc(C)n2c1nc1ccccc12	> 100 µM (inactive)	> 100 µM (inactive)	> 100 µM (inactive)	> 100 µM (inactive)	> 100 µM (inactive)	> 100 µM (inactive)	80.5 µM (inactive)	–	> 100 µM (inactive)	> 100 µM (inactive)	> 100 µM (inactive)	> 100 µM (inactive)	> 100 µM (inactive)	> 100 µM (inactive)	> 100 µM (inactive)	–	> 100 µM (inactive)	1.46 µM (inactive)	> 100 µM (inactive)	–
Cn1c(=O)c2[nH]c(N/N=C3/SCC(=O)N3Cc3ccccc3)nc2n(C)c1=O	44.3 µM (inactive)	> 100 µM (inactive)	30.2 µM (inactive)	> 100 µM (inactive)	69.5 µM (inactive)	24.9 µM (inactive)	> 100 µM (inactive)	41.6 µM (inactive)	> 100 µM (inactive)	> 100 µM (inactive)	> 100 µM (inactive)	19 µM (inactive)	19.1 µM (inactive)	41.1 µM (inactive)	29.1 µM (inactive)	42.8 µM (inactive)	> 100 µM (inactive)	> 100 µM (inactive)	> 100 µM (inactive)	–
